Values of other authors as cited in patent publication US7718201B2, “Method of inducing liver phase II enzymes” (Access Business Group International LLC, priority 2005, dated 2010).

System: quinone reductase in Hepa1c1c7 cells
Details: reference values; broccoli dependent on variety, form, extraction conditions

## C[S+]([O-])CCCCN=C=S (stereo not shown) [sulforaphane]
  Phase II enzyme induction activity (reported): 10^6 U/g
